Data on 18 compounds can be found in ChEMBL document CHEMBL5230107, “Anticancer boron-containing prodrugs responsive to oxidative stress from the tumor microenvironment” (Eur J Med Chem, 2020).

Series [1] has as its system MV4-11. Nature of the series: Antiproliferative activity against human MV4-11 cells assessed as reduction in cell viability. It counts as functional.
In series [2] the test system is U-937. The series can be described thus: Antiproliferative activity against human U-937 cells assessed as reduction in cell viability. It counts as functional.
For series [3], the system named is 4T1. The series can be described thus: Antitumor activity against mouse 4T1 cells implanted in mouse assessed as reduction in tumor volume at 37 mg/kg, iv. The arrangement: scale not given: the % may be the effect or the level left. In kind it is functional.
For series [4], the system named is 4T1. Nature of the series: Cytotoxicity against mouse 4T1 cells assessed as reduction in cell viability. It counts as functional, cell-based.
For series [5], the system named is NIH3T3. Nature of the series: Cytotoxicity against mouse NIH3T3 cells assessed as reduction in cell viability. It counts as functional, cell-based.
In series [6] the test system is MCF7. The series can be described thus: Antitumor activity against human MCF7 cells xenografted in mouse assessed as tumor regression at 5 mg/kg, po. It counts as functional. Background: A xenograft is tissue or cells of one species grown in another, often human tumour cells in immunodeficient mice.
Series [7] has as its system SR. Nature of the series: Antiproliferative activity against human SR cells assessed as growth inhibition at 10 uM relative to control. The arrangement: scale not given: the % may be the effect or the level left. It counts as functional.
The test system of series [8] is NCI-H460. The series can be described thus: Antiproliferative activity against human NCI-H460 cells assessed as growth inhibition at 10 uM relative to control. It counts as functional. The arrangement: scale not given: the % may be the effect or the level left.
Series [9] has as its system NIH3T3. The series can be described thus: Antiproliferative activity against mouse NIH3T3 cells assessed as reduction in cell viability. In kind it is functional, cell-based.
Series [10] has as its system DU-145. Nature of the series: Antitumor activity against human DU-145 cells implanted in mouse assessed as reduction in tumor volume at 2 mg/kg, po. It counts as functional. Also on record: scale not given: the % may be the effect or the level left.
The subject of series [11] is DU-145. The series can be described thus: Antiproliferative activity against human DU-145 cells assessed as reduction in cell viability. It counts as functional, cell-based.
In series [12] the test system is Panel NCI-60 (60 carcinoma cell lines). The series can be described thus: Cytotoxicity against human Panel NCI-60 (60 carcinoma cell lines). In kind it is functional, cell-based.
Series [13] concerns HL-60. Nature of the series: Cytotoxicity against human HL-60 cells assessed as inhibition of cell growth. In kind it is functional, cell-based.
For series [14], the system named is MDA-MB-231. Nature of the series: Cytotoxicity against human MDA-MB-231 cells assessed as reduction in cell viability by Almar Blue stained fluorescence-based assay. It counts as functional.
For series [15], the system named is HeLa. The series can be described thus: Cytotoxicity against human HeLa cells assessed as reduction in cell viability by Almar Blue stained fluorescence-based assay. It counts as functional.
The test system of series [16] is A549. The series can be described thus: Cytotoxicity against human A549 cells assessed as reduction in cell viability by Almar Blue stained fluorescence-based assay. It counts as functional.
Series [17] relates to NCI-H1993. The series can be described thus: Cytotoxicity against human NCI-H1993 cells assessed as inhibition of cell growth. In kind it is functional, cell-based.
Series [18] deals with B16-F10. Nature of the series: Antiproliferative activity against mouse B16-F10 cells assessed as reduction in cell viability at 100 uM. It counts as functional.
Series [19] deals with HeLa. Nature of the series: Antiproliferative activity against human HeLa cells assessed as reduction in cell viability at 100 uM. It counts as functional.
In series [20] the test system is B16-F10. Nature of the series: Antitumor activity against mouse B16-F10 cells implanted in mouse assessed as increase in survival time at 0.25 mg/kg, po. It counts as functional.
Series [21] deals with HeLa. Nature of the series: Cytotoxicity against human HeLa cells assessed as inhibition of cell growth. In kind it is functional, cell-based.
A short description of series [22]: Antiproliferative activity against human U-87 MG cells assessed as reduction in cell viability. In kind it is functional, cell-based, U-87MG ATCC.
Series [23] relates to MIA PaCa-2. Nature of the series: Cytotoxicity against human MIA PaCa-2 cells assessed as inhibition of cell growth measured after 72 hrs by MTS assay. In kind it is functional, cell-based. Conditions: MIA PaCa-2, 72 h. In general terms: Tetrazolium dyes change colour on reduction, which living cells bring about.
For series [24], the system named is BXPC-3. Nature of the series: Antiproliferative activity against human BXPC-3 cells assessed as reduction in cell viability measured for 72 hrs by CCK-8 assay. Conditions: BXPC-3, 72 h. In kind it is functional, cell-based.
Series [25] can be described thus: Antiproliferative activity against human Nasopharyngeal carcinoma cell line assessed as reduction in cell viability measured for 72 hrs by CCK-8 assay. In kind it is functional, cell-based.
The test system of series [26] is PSN1. The series can be described thus: Antiproliferative activity against human PSN1 cells assessed as reduction in cell viability measured for 72 hrs by CCK-8 assay. It counts as functional, cell-based. Particulars: PSN1, 72 h.
Series [27] is described as follows: Cytotoxicity against human MRC5 cells assessed as reduction in cell viability by Almar Blue stained fluorescence-based assay. It counts as toxicity.
The test system of series [28] is MCF7. The series can be described thus: Antitumor activity against human MCF7 cells xenografted in BALB/c nude mouse assessed as tumor growth inhibition at 10 mg/kg, iv. It counts as functional. Particulars: read-out: TGI.

With `O=C(CCCCCCC(=O)Nc1ccccc1)NOCc1ccc(B(O)O)cc1`, the Activity in series [1] and in [2] was 20% each time.
In general, IC50 refers to the concentration that gives 50% inhibition. As for `CCN(CC)C(=S)SCc1ccc(B2OC(C)(C)C(C)(C)O2)cc1`, the Activity in series [3] stood at 80%. Also, the IC50 in series [4] is 1 µM; in series [5] it was 6 µM.
Turning to `COc1cccc2c1C(=O)c1c(O)c3c(c(O)c1C2=O)C[C@@](O)(C(=O)CO)C[C@@H]3O[C@H]1C[C@H](NC(=O)OCc2ccc(B3OC(C)(C)C(C)(C)O3)cc2)[C@H](O)[C@H](C)O1`, the Activity in [6] came to 30%.
In the case of `CC1(C)OB(c2ccc(C[N+](C)(CCCl)CCCl)cc2)OC1(C)C.[Br-]`, the Activity in series [7] and in series [8] was 85% each time.
For the compound `CC1(COC(=O)OCc2ccc(B3OCCCO3)cc2)COC(/C=C/c2ccccc2)OC1` (centres undefined), the concentration for half-maximal inhibition (IC50) in series [9] was found to be 182 µM; in series [11] it was 48 µM. For the same compound, the Activity in series [10] worked out at 75%.
Take `COc1cc(CBr)c(B2OC(C)(C)C(C)(C)O2)c(CBr)c1`: 10 µM corresponded to half-maximal inhibition in series [12] (IC50).
With `CN(Cc1cnc2nc(N)nc(NC(=O)OCc3ccc(B(O)O)cc3)c2n1)c1ccc(C(=O)N[C@H](CCC(=O)O)C(=O)O)cc1`, in series [13], the IC50 is 0.05 µM.
On to `CCN(CC)/[N+]([O-])=N/OCc1cc2ccc(B3OC(C)(C)C(C)(C)O3)cc2oc1=O`, for which the 50% inhibitory concentration (IC50) in series [14], in [15] and in series [16] was 10 µM in each case.
Regarding `C[C@@H](Oc1cc(-c2cnn(C3CCNCC3)c2)cnc1NC(=O)OCc1ccc(B(O)O)cc1)c1c(Cl)ccc(F)c1Cl`, the IC50 in [17] came out at 3 µM.
As to `CC[C@@]1(O)C(=O)OCc2c1cc1n(c2=O)Cc2cc3cc(OC(=O)OCc4cc5ccc(B(O)O)cc5oc4=O)ccc3nc2-1`, the Activity in [18] and in series [19] was 60% in each case. Also, the Time in series [20] was 1 days.
`COc1cccc2c1C(=O)c1c(O)c3c(c(O)c1C2=O)C[C@@](O)(C(=O)CO)C[C@@H]3O[C@H]1C[C@H](NCC(=O)OCc2cc(C)cc(COC(=O)c3ccc(C(=C(c4ccccc4)c4ccccc4)c4ccccc4)cc3)c2OCc2ccc(B3OC(C)(C)C(C)(C)O3)cc2)[C@H](O)[C@H](C)O1`: the IC50 in [21] was 2 µM.
Turning to `CC[C@@]1(O)C(=O)OCc2c1cc1n(c2=O)Cc2cc3ccccc3nc2-1` [CAMPTOTHECIN], the IC50 in series [22] was determined as 0.25 µM.
In the case of `C[C@@H](Oc1cc(-c2cnn(C3CCNCC3)c2)cnc1N)c1c(Cl)ccc(F)c1Cl` [CRIZOTINIB], the IC50 in [17] (Homo sapiens, NCI-H1993, read-out: IC50) is 3 µM.
With `COc1cccc2c1C(=O)c1c(O)c3c(c(O)c1C2=O)C[C@@](O)(C(=O)CO)C[C@@H]3O[C@H]1C[C@H](N)[C@H](O)[C@H](C)O1` [DOXORUBICIN], the 50% inhibitory concentration (IC50) in series [23] was found to be 0.2 µM. In addition, the Activity in series [6] came out at 50%.
On to `Nc1ccn([C@@H]2O[C@H](CO)[C@@H](O)C2(F)F)c(=O)n1` [GEMCITABINE], for which the IC50 in series [24], in series [25] and in series [26] was 0.005 µM throughout.
With `CC[C@@]1(O)C(=O)OCc2c1cc1n(c2=O)Cc2cc3cc(O)ccc3nc2-1` [HYDROXYCAMPTOTHECIN], the Activity in series [18] and in [19] was 60% each time.
Regarding `CC(=O)O[C@H]1C(=O)[C@@]2(C)[C@H]([C@H](OC(=O)c3ccccc3)[C@]3(O)C[C@H](OC(=O)[C@H](O)[C@@H](NC(=O)c4ccccc4)c4ccccc4)C(C)=C1C3(C)C)[C@]1(OC(C)=O)CO[C@@H]1C[C@@H]2O` [PACLITAXEL], the IC50 in series [27] came to 25 µM. Further, the inhibition in vivo at 10 mg/kg in [28] amounted to 60%.
In the case of `O=C(CCCCCCC(=O)Nc1ccccc1)NO` [VORINOSTAT], the Activity in series [1] and in [2] was 20% each time.
